Experimental data from ChEMBL document CHEMBL4808245, “Cytoprotective agent troxipide-cyanine dye conjugate with cytotoxic and antiproliferative activity in patient-derived glioblastoma cell lines” (Bioorg Med Chem Lett, 2021).
The source made the active and inactive calls. No cut-off for these calls is given here.

Columns and labels:
U-87 MG [1] = assay: Cytotoxicity against human U-87MG cells assessed as reduction in total cell count measured after 96 hrs by Hoechst staining analysis; type: functional, cell-based, U-87MG ATCC
U-87 MG [2] = assay: Cytotoxicity against human U-87MG cells assessed as reduction in total cell count measured after 96 hrs in presence of TMZ by Hoechst staining analysis; type: functional, cell-based, U-87MG ATCC
U-87 MG [3] = assay: Antiproliferative activity against human U-87MG cells assessed as reduction in cell proliferation measured after 48 hrs by EdU-incorporation assay; type: functional, cell-based, U-87MG ATCC
U-87 MG [4] = assay: Antiproliferative activity against human U-87MG cells assessed as reduction in cell proliferation measured after 48 hrs in presence of TMZ by EdU-incorporation assay; type: functional, cell-based, U-87MG ATCC
GBM [5] = assay: Cytotoxicity against patient derived human GBM cells assessed as reduction in total cell count measured after 96 hrs by Hoechst staining analysis; type: functional, cell-based
GBM [6] = assay: Cytotoxicity against patient derived human GBM cells assessed as reduction in total cell count measured after 96 hrs in presence of TMZ by Hoechst staining analysis; type: functional, cell-based
GBM [7] = assay: Antiproliferative activity against patient derived human GBM cells assessed as reduction in cell proliferation measured after 48 hrs by EdU-incorporation assay; type: functional, cell-based
GBM [8] = assay: Antiproliferative activity against patient derived human GBM cells assessed as reduction in cell proliferation measured after 48 hrs in presence of TMZ by EdU-incorporation assay; type: functional, cell-based
KNS-42 [9] = assay: Cytotoxicity against human KNS-42 cells assessed as reduction in total cell count measured after 96 hrs by Hoechst staining analysis; type: functional, cell-based; conditions: KNS-42, 96 h
KNS-42 [10] = assay: Cytotoxicity against human KNS-42 cells assessed as reduction in total cell count measured after 96 hrs in presence of TMZ by Hoechst staining based analysis; type: functional; conditions: KNS-42, 96 h
KNS-42 [11] = assay: Antiproliferative activity against human KNS-42 cells assessed as reduction in cell proliferation measured after 48 hrs by EdU-incorporation assay; type: functional, cell-based; conditions: KNS-42, 48 h
KNS-42 [12] = assay: Antiproliferative activity against human KNS-42 cells assessed as reduction in cell proliferation measured after 48 hrs in presence of TMZ by EdU-incorporation assay; type: functional, cell-based; conditions: KNS-42, 48 h
GBM [13] = assay: Induction of apoptosis in patient derived human GBM cells assessed as increase in cleaved caspase-3 positive cells at IC50; type: functional, cell-based
[14] = Cytotoxicity against primary brain pericytes (unknown origin); type: cell-based
[15] = Selectivity ratio of EC50 for cytotoxicity against primary brain pericytes (unknown origin) to EC50 for cytotoxicity against patient derived human GBM cells
GBM [16] = assay: Synergistic cytotoxicity against patient derived human GBM cells assessed as combination index at 0.04 nM measured after 96 hrs in presence of TMZ by Hoechst staining based analysis; type: functional
GBM [17] = assay: Synergistic cytotoxicity against patient derived human GBM cells assessed as combination index at 0.2 nM measured after 96 hrs in presence of TMZ by Hoechst staining based analysis; type: functional
GBM [18] = assay: Synergistic cytotoxicity against patient derived human GBM cells assessed as combination index at 1 nM measured after 96 hrs in presence of TMZ by Hoechst staining based analysis; type: functional
GBM [19] = assay: Synergistic cytotoxicity against patient derived human GBM cells assessed as combination index at 5 nM measured after 96 hrs in presence of TMZ by Hoechst staining based analysis; type: functional
GBM [20] = assay: Synergistic cytotoxicity against patient derived human GBM cells assessed as combination index at 25 nM measured after 96 hrs in presence of TMZ by Hoechst staining based analysis; type: functional
GBM [21] = assay: Synergistic cytotoxicity against patient derived human GBM cells assessed as combination index at 125 nM measured after 96 hrs in presence of TMZ by Hoechst staining based analysis; type: functional
GBM [22] = assay: Synergistic cytotoxicity against patient derived human GBM cells assessed as combination index at 800 nM measured after 96 hrs in presence of TMZ by Hoechst staining based analysis; type: functional
GBM [23] = assay: Synergistic cytotoxicity against patient derived human GBM cells assessed as combination index at 4000 nM measured after 96 hrs in presence of TMZ by Hoechst staining based analysis; type: functional
GBM [24] = assay: Synergistic cytotoxicity against patient derived human GBM cells assessed as combination index at 20000 nM measured after 96 hrs in presence of TMZ by Hoechst staining based analysis; type: functional
GBM [25] = assay: Synergistic cytotoxicity against patient derived human GBM cells assessed as combination index at 100000 nM measured after 96 hrs in presence of TMZ by Hoechst staining based analysis; type: functional
U-87 MG [26] = assay: Antagonistic cytotoxicity against human U-87MG cells assessed as combination index at 0.04 nM measured after 96 hrs in presence of TMZ by Hoechst staining based analysis; type: functional, U-87MG ATCC
U-87 MG [27] = assay: Synergistic cytotoxicity against human U-87MG cells assessed as combination index at 0.2 nM measured after 96 hrs by Hoechst staining based analysis; type: functional, U-87MG ATCC
U-87 MG [28] = assay: Antagonistic cytotoxicity against human U-87MG cells assessed as combination index at 1 nM measured after 96 hrs in presence of TMZ by Hoechst staining based analysis; type: functional, U-87MG ATCC
U-87 MG [29] = assay: Synergistic cytotoxicity against human U-87MG cells assessed as combination index at 5 nM measured after 96 hrs by Hoechst staining based analysis; type: functional, U-87MG ATCC
U-87 MG [30] = assay: Antagonistic cytotoxicity against human U-87MG cells assessed as combination index at 25 nM measured after 96 hrs in presence of TMZ by Hoechst staining based analysis; type: functional, U-87MG ATCC
U-87 MG [31] = assay: Synergistic cytotoxicity against human U-87MG cells assessed as combination index at 125 nM measured after 96 hrs by Hoechst staining based analysis; type: functional, U-87MG ATCC
U-87 MG [32] = assay: Synergistic cytotoxicity against human U-87MG cells assessed as combination index at 800 nM measured after 96 hrs by Hoechst staining based analysis; type: functional, U-87MG ATCC
U-87 MG [33] = assay: Synergistic cytotoxicity against human U-87MG cells assessed as combination index at 4000 nM measured after 96 hrs by Hoechst staining based analysis; type: functional, U-87MG ATCC
U-87 MG [34] = assay: Synergistic cytotoxicity against human U-87MG cells assessed as combination index at 20000 nM measured after 96 hrs by Hoechst staining based analysis; type: functional, U-87MG ATCC
U-87 MG [35] = assay: Synergistic cytotoxicity against human U-87MG cells assessed as combination index at 100000 nM measured after 96 hrs by Hoechst staining based analysis; type: functional, U-87MG ATCC
KNS-42 [36] = assay: Antagonistic cytotoxicity against human KNS-42 cells assessed as combination index at 0.04 nM measured after 96 hrs in presence of TMZ by Hoechst staining based analysis; type: functional
KNS-42 [37] = assay: Synergistic cytotoxicity against human KNS-42 cells assessed as combination index at 0.2 nM measured after 96 hrs by Hoechst staining based analysis; type: functional
KNS-42 [38] = assay: Antagonistic cytotoxicity against human KNS-42 cells assessed as combination index at 1 nM measured after 96 hrs in presence of TMZ by Hoechst staining based analysis; type: functional
KNS-42 [39] = assay: Synergistic cytotoxicity against human KNS-42 cells assessed as combination index at 5 nM measured after 96 hrs by Hoechst staining based analysis; type: functional
KNS-42 [40] = assay: Antagonistic cytotoxicity against human KNS-42 cells assessed as combination index at 25 nM measured after 96 hrs in presence of TMZ by Hoechst staining based analysis; type: functional
KNS-42 [41] = assay: Synergistic cytotoxicity against human KNS-42 cells assessed as combination index at 125 nM measured after 96 hrs by Hoechst staining based analysis; type: functional
KNS-42 [42] = assay: Synergistic cytotoxicity against human KNS-42 cells assessed as combination index at 800 nM measured after 96 hrs by Hoechst staining based analysis; type: functional
KNS-42 [43] = assay: Synergistic cytotoxicity against human KNS-42 cells assessed as combination index at 4000 nM measured after 96 hrs by Hoechst staining based analysis; type: functional
KNS-42 [44] = assay: Synergistic cytotoxicity against human KNS-42 cells assessed as combination index at 20000 nM measured after 96 hrs by Hoechst staining based analysis; type: functional
KNS-42 [45] = assay: Synergistic cytotoxicity against human KNS-42 cells assessed as combination index at 100000 nM measured after 96 hrs by Hoechst staining based analysis; type: functional

In the case of COc1cc(C(=O)NC2CCCN(C(=O)CCCCCN3/C(=C/C=C4\CCCC(/C=C/C5=[N+](CCCCCC(=O)N6CCCC(NC(=O)c7cc(OC)c(OC)c(OC)c7)C6)c6ccccc6C5(C)C)=C4Cl)C(C)(C)c4ccccc43)C2)cc(OC)c1OC.[Br-] (stereo not given), the EC50 (U-87 MG [1]) is reported as 0.394 µM, the EC50 (U-87 MG [2]) is reported as 0.108 µM and the IC50 (U-87 MG [3]) is reported as 0.504 µM. The IC50 (U-87 MG [4]) was 0.194 µM, the EC50 (GBM [5]) was 0.211 µM and the EC50 (GBM [6]) was 0.09 µM. It also gave an IC50 (GBM [7]) of 0.164 µM, an IC50 (GBM [8]) of 0.11 µM and an EC50 (KNS-42 [9]) of 0.394 µM. The EC50 (KNS-42 [10]) was 0.108 µM, the IC50 (KNS-42 [11]) was 0.504 µM and the IC50 (KNS-42 [12]) was 0.194 µM. The Activity (GBM [13]) was “Active”, the EC50 [14] was 3.6 µM and the “Ratio EC50” value [15] was 19. For the same compound, the CI (GBM [16]) was 0.323, the CI (GBM [17]) was 0.025 and the CI (GBM [18]) was 0.301. The CI (GBM [19]) was 0.551, the CI (GBM [20]) was 0.506 and the CI (GBM [21]) was 0.571. It also gave a CI (GBM [22]) of 0.287, a CI (GBM [23]) of 0.536 and a CI (GBM [24]) of 0.526. It also gave a CI (GBM [25]) of 0.248, a CI (U-87 MG [26]) of 5.672 and a CI (U-87 MG [27]) of 0.016. For the same compound, the CI (U-87 MG [28]) was 3.406, the CI (U-87 MG [29]) was 0.134 and the CI (U-87 MG [30]) was 3.837. The CI (U-87 MG [31]) was 0.268, the CI (U-87 MG [32]) was 0.067 and the CI (U-87 MG [33]) was 0.116. The CI (U-87 MG [34]) was 0.052, the CI (U-87 MG [35]) was 0.05 and the CI (KNS-42 [36]) was 5.672. It also gave a CI (KNS-42 [37]) of 0.016, a CI (KNS-42 [38]) of 3.406 and a CI (KNS-42 [39]) of 0.134. The CI (KNS-42 [40]) was 3.837, the CI (KNS-42 [41]) was 0.268 and the CI (KNS-42 [42]) was 0.067. The CI (KNS-42 [43]) was 0.116, the CI (KNS-42 [44]) was 0.052 and the CI (KNS-42 [45]) was 0.05.
